The results in this text go back to PubChem BioAssay AID602121 (Johns Hopkins Ion Channel Center, 2011).

Activity calls are given as the source filed them.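 Rule for the calls: active = opens the KCNQ1 potassium channel at some tested dose and gives a fittable dose response curve; inactive = the rest.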

The target of this experiment is Potassium voltage-gated channel subfamily KQT member 1 (Homo sapiens) (UniProt P51787). The experiment in a line: human KCNQ1 channel activators, SAR follow-up, automated patch clamp, CHO cells, set 2 (AID 602121). To be noted: for current activation: at 30 µM (top of the series); for EC50: automated patch clamp current. A general note: In patch-clamp work, channel activity is measured electrically.
Chain of Potassium voltage-gated channel subfamily KQT member 1 (Homo sapiens) (P51787 whole entry, looked up): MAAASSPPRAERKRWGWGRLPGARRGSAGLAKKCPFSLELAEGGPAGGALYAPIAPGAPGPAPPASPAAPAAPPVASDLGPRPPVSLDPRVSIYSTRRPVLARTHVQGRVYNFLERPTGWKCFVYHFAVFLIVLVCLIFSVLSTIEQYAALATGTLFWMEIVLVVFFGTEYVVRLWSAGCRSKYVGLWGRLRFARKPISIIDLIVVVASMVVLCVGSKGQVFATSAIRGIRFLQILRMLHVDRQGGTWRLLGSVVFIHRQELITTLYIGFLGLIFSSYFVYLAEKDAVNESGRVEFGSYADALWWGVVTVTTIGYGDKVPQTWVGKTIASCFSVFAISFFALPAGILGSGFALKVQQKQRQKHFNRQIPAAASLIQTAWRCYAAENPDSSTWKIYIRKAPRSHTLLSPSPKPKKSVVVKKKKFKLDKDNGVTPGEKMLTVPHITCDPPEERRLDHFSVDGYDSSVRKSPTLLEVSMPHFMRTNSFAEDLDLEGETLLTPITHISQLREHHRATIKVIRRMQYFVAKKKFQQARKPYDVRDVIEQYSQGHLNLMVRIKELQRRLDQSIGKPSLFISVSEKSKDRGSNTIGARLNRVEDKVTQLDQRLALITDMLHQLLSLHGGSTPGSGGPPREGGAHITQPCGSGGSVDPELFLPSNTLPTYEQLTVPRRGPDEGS

On to `COC(=O)c1cccc(NC(=O)[C@H]2CCCCN2S(=O)(=O)c2ccc(C)cc2)c1`, for which the current activation entry was “inactive”. On the same count and under the same terms, to `CCc1cccc(NC(=O)[C@H]2CCCCN2S(=O)(=O)c2ccc(C)cc2)n1` belongs “inactive”. Usually EC50 stands for the concentration giving half of the maximal effect. `Cc1ccc(S(=O)(=O)N2CCCC[C@@H]2C(=O)Nc2ccc(F)c(C)c2)cc1`: the EC50 is 3350 nM. As for `Cc1ccc(S(=O)(=O)N2CCCC[C@@H]2C(=O)Nc2cccc(C(F)(F)F)c2)cc1`, the EC50 was 3240 nM. Turning to `Cc1ccc(S(=O)(=O)N2CCCC[C@@H]2C(=O)Nc2ccccc2)cc1`, the current activation result was “inactive”. On to `COc1ccc(-c2csc(NC(=O)[C@H]3CCCCN3S(=O)(=O)c3ccc4c(c3)OCO4)n2)cc1`, for which the EC50 is 778 nM. With `Cc1ccc(S(=O)(=O)N2CCCC[C@@H]2C(=O)Nc2cccc([N+](=O)[O-])c2)cc1`, the current activation result is “inactive”. As to `Cc1ccc(S(=O)(=O)N2CCCC[C@@H]2C(=O)Nc2ccc(C)c(Br)c2)cc1`, the current activation result was “inactive”. For the compound `Cc1ccc(S(=O)(=O)N2CCCC[C@@H]2C(=O)Nc2cccc(Cl)n2)cc1`, the current activation entry is “inactive”.

As to `COc1cccc(NC(=O)[C@H]2CCCCN2S(=O)(=O)c2ccc(C)cc2)c1`, the current activation entry is “inactive”. For the compound `Cc1ccc(S(=O)(=O)N2CCCC[C@@H]2C(=O)Nc2ccncc2)cc1`, the current activation entry was “inactive”.

Regarding `Cc1ccc(S(=O)(=O)N2CCCC[C@@H]2C(=O)Nc2ccc(C)c(C)c2)cc1`, the EC50 was 2250 nM.
